Data reported in patent US6737417B2, “Compounds with hydroxycarbonyl-halogenoalkyl side chain” (Chugai Seiyaku Kabushiki Kaisha, priority 1999, dated 2004).

Test system: ovariectomized mice administered with 17β-estradiol
Assay: Anti-estrogenic activity (oral administration): inhibition of estradiol-induced increase in uterine weight in ovariectomized mice
Assay type: in vivo
Conditions: 10 mg/kg p.o., once a day for 3 days, ovariectomized ICR mice given 17β-estradiol-benzoate 0.1 μg/mouse s.c. for 3 days; for inhibition in vivo at 10 mg/kg: po, 24 h
Description: Test compounds were assayed for their oral anti-estrogenic activity in the following manner. In this experiment, the compounds prepared in Examples 5, 12, 14-33, 37 and 38 were used as test compounds. As control compounds, those having the same structures in the parent scaffold as the test compounds were used, that is, ZM189154 for Examples 5 and 27-33 and ICI182780 for Examples 12, 14-26, 37 and 38.
In this experiment, each of the test and control compounds was suspended in 5% arabic gum solution and orally administered for 3 days on a once-a-day basis. After 24 hours from the last administration, the test animals were sacrificed and the uteri were removed and weighed.

Row | SMILES | inhibition in vivo at 10 mg/kg [%] | also measured
1 | C[C@]1(c2ccc(O)cc2)CCc2cc(O)ccc2C1CCCCCCCCC(CCCC(F)(F)C(F)(F)F)C(=O)O (mixture of isomers) [Example 5, 10-[(1RS, 2RS)-6-hydroxy-2-(4-hydroxyphenyl)-2-methyl-1,2,3,4-tetrahydro-1-naphthyl]-2-(4,4,5,5,5-pentafluoropentyl)decanoic Acid] | 67 | –
2 | C[C@]12C[C@H](CCCCCCCCC(CCCCCC(F)(F)C(F)(F)F)C(=O)O)[C@@H]3c4ccc(O)cc4CC[C@H]3[C@@H]1CC[C@@H]2O (stereo partly drawn) [Example 12, 10-[3,17β-dihydroxyestra-1,3,5(10)-trien-11β-yl]-2-(6,6,7,7,7-pentafluoroheptyl)decanoic Acid] | 97 | –
3 | C[C@]12CC[C@@H]3c4ccc(O)cc4C[C@@H](CCCCCCCCC(CCCC(F)(F)C(F)(F)F)C(=O)O)[C@H]3[C@@H]1CC[C@@H]2O (stereo partly drawn) [Example 14, 10-[3,17β-dihydroxyestra-1,3,5(10)-trien-7α-yl]-2-(4,4,5,5,5-pentafluoropentyl)decanoic Acid] | 87 | –
4 | C[C@]12CC[C@@H]3c4ccc(O)cc4C[C@@H](CCCCCCCCC(CCCC(F)(F)C(F)(F)C(F)(F)C(F)(F)F)C(=O)O)[C@H]3[C@@H]1CC[C@@H]2O (stereo partly drawn) [Example 15, 10-[3,17β-dihydroxyestra-1,3,5(10)-trien-7α-yl]-2-(4,4,5,5,6,6,7,7,7-nonafluoroheptyl)decanoic Acid] | 96 | –
5 | C[C@]12CC[C@@H]3c4ccc(O)cc4C[C@@H](CCCCCCCCC(CCC(F)(F)C(F)(F)C(F)(F)C(F)(F)F)C(=O)O)[C@H]3[C@@H]1CC[C@@H]2O (stereo partly drawn) [Example 16, 10-[3,17β-dihydroxyestra-1,3,5(10)-trien-7α-yl]-2-(3,3,4,4,5,5,6,6,6-nonafluorohexyl)decanoic Acid] | 98 | –
6 | C[C@]12CC[C@@H]3c4ccc(O)cc4C[C@@H](CCCCCCCCC(CCCCCC(F)(F)C(F)(F)F)C(=O)O)[C@H]3[C@@H]1CC[C@@H]2O (stereo partly drawn) [Example 17, 10-[3,17β-dihydroxyestra-1,3,5(10)-trien-7α-yl]-2-(6,6,7,7,7-pentafluoroheptyl)decanoic Acid] | 94 | –
7 | C[C@]12CC[C@@H]3c4ccc(O)cc4C[C@@H](CCCCCCCCCC(CCCC(F)(F)C(F)(F)C(F)(F)C(F)(F)F)C(=O)O)[C@H]3[C@@H]1CC[C@@H]2O (stereo partly drawn) [Example 18, 11-[3,17β-dihydroxyestra-1,3,5(10)-trien-7α-yl]-2-(4,4,5,5,6,6,7,7,7-nonafluoroheptyl)undecanoic Acid] | 85 | –
8 | C[C@]12CC[C@@H]3c4ccc(O)cc4C[C@@H](CCCCCCCCCC(CCC(F)(F)C(F)(F)C(F)(F)C(F)(F)F)C(=O)O)[C@H]3[C@@H]1CC[C@@H]2O (stereo partly drawn) [Example 19, 11-[3,17β-dihydroxyestra-1,3,5(10)-trien-7α-yl]-2-(3,3,4,4,5,5,6,6,6-nonafluorohexyl)undecanoic Acid] | 92 | –
9 | C[C@]12C[C@H](CCCCCCCCCC(CCC(F)(F)C(F)(F)C(F)(F)C(F)(F)F)C(=O)O)[C@@H]3c4ccc(O)cc4CC[C@H]3[C@@H]1CC[C@@H]2O (stereo partly drawn) [Example 20, 11-(3,17β-dihydroxyestra-1,3,5(10)-trien-11β-yl)-2-(3,3,4,4,5,5,6,6,6-nonafluorohexyl)undecanoic Acid] | 94 | –
10 | C[C@]12C[C@H](CCCCCCCCC(CCCC(F)(F)C(F)(F)F)C(=O)O)[C@@H]3c4ccc(O)cc4CC[C@H]3[C@@H]1CC[C@@H]2O (stereo partly drawn) [Example 21, 10-(3,17β-dihydroxyestra-1,3,5(10)-trien-11β-yl)-2-(4,4,5,5,5-pentafluoropentyl)decanoic Acid] | 99 | –
11 | C[C@]12C[C@H](CCCCCCCCC(CCCC(F)(F)C(F)(F)C(F)(F)C(F)(F)F)C(=O)O)[C@@H]3c4ccc(O)cc4CC[C@H]3[C@@H]1CC[C@@H]2O (stereo partly drawn) [Example 22, 10-(3,17β-dihydroxyestra-1,3,5(10)-trien-11β-yl)-2-(4,4,5,5,6,6,7,7,7-nonafluoroheptyl)decanoic Acid] | 98 | –
12 | C[C@]12C[C@H](CCCCCCCCC(CCC(F)(F)C(F)(F)C(F)(F)C(F)(F)F)C(=O)O)[C@@H]3c4ccc(O)cc4CC[C@H]3[C@@H]1CC[C@@H]2O (stereo partly drawn) [Example 23, 10-(3,17β-dihydroxyestra-1,3,5(10)-trien-11β-yl)-2-(3,3,4,4,5,5,6,6,6-nonafluorohexyl)decanoic Acid] | 98 | –
13 | C[C@]12C[C@H](CCCCCCCCCC(CCCC(F)(F)C(F)(F)F)C(=O)O)[C@@H]3c4ccc(O)cc4CC[C@H]3[C@@H]1CC[C@@H]2O (stereo partly drawn) [Example 24, 11-(3,17β-dihydroxyestra-1,3,5(10)-trien-11β-yl)-2-(4,4,5,5,5-pentafluoropentyl)undecanoic Acid] | 98 | –
14 | C[C@]12C[C@H](CCCCCCCCCC(CCCC(F)(F)C(F)(F)C(F)(F)C(F)(F)F)C(=O)O)[C@@H]3c4ccc(O)cc4CC[C@H]3[C@@H]1CC[C@@H]2O (stereo partly drawn) [Example 25, 11-(3,17β-dihydroxyestra-1,3,5(10)-trien-11β-yl)-2-(4,4,5,5,6,6,7,7,7-nonafluoroheptyl)undecanoic Acid] | 93 | –
15 | C[C@]12C[C@H](CCCCCCCCC(CCCCCC(F)(F)C(F)(F)F)C(=O)O)[C@@H]3c4ccc(O)cc4CC[C@H]3[C@@H]1CC[C@@H]2O (stereo partly drawn) [Example 26, 10-(3,17β-dihydroxyestra-1,3,5(10)-trien-11β-yl)-2-(6,6,7,7,7-pentafluoroheptyl)decanoic Acid] | – | Inhibition (%) (10 mg/kg): 96%
16 | O=C(O)C(CCCCCCCCCCc1c(-c2ccc(O)cc2)ccc2cc(O)ccc12)CCCC(F)(F)C(F)(F)F (centres unmarked) [Example 27, 12-[6-hydroxy-2-(4-hydroxyphenyl)naphth-1-yl]-2-(4,4,5,5,5-pentafluoropentyl)dodecanoic Acid] | 64 | –
17 | O=C(O)C(CCCCCCCCCc1c(-c2ccc(O)cc2)ccc2cc(O)ccc12)CCC(F)(F)C(F)(F)C(F)(F)C(F)(F)F (centres unmarked) [Example 28, 11-[6-hydroxy-2-(4-hydroxyphenyl)naphth-1-yl]-2-(3,3,4,4,5,5,6,6,6-nonafluorohexyl)undecanoic Acid] | 68 | –
18 | Cc1cc(O)ccc1-c1ccc2cc(O)ccc2c1CCCCCCCCCCC(CCCC(F)(F)C(F)(F)F)C(=O)O (centres unmarked) [Example 29, 12-[6-hydroxy-2-(4-hydroxy-2-methylphenyl)-naphth-1-yl]-2-(4,4,5,5,5-pentafluoropentyl)dodecanoic Acid] | 80 | –
19 | CCc1cc(O)ccc1-c1ccc2cc(O)ccc2c1CCCCCCCCCCC(CCCC(F)(F)C(F)(F)F)C(=O)O (centres unmarked) [Example 30, 12-[2-(2-ethyl-4-hydroxyphenyl)-6-hydroxynaphth-1-yl]-2-(4,4,5,5,5-pentafluoropentyl)dodecanoic Acid] | 58 | –
20 | O=C(O)C(CCCCCCCCCCc1c(-c2ccc(O)cc2F)ccc2cc(O)ccc12)CCCC(F)(F)C(F)(F)F (centres unmarked) [Example 31, 12-[2-(2-fluoro-4-hydroxyphenyl)-6-hydroxynaphth-1-yl]-2-(4,4,5,5,5-pentafluoropentyl)dodecanoic Acid] | 75 | –
21 | O=C(O)C(CCCCCCCCCCc1c(-c2ccc(O)cc2C(F)(F)F)ccc2cc(O)ccc12)CCCC(F)(F)C(F)(F)F (centres unmarked) [Example 32, 12-[6-hydroxy-2-(4-hydroxy-2-trifluoromethylphenyl)naphth-1-yl]-2-(4,4,5,5,5-pentafluoropentyl)-dodecanoic Acid] | 73 | –
22 | O=C(O)C(CCCCCCCCCCc1c(-c2ccc(O)c(F)c2)ccc2cc(O)ccc12)CCCC(F)(F)C(F)(F)F (centres unmarked) [Example 33, 12-[2-(3-fluoro-4-hydroxyphenyl)-6-hydroxynaphth-1-yl]-2-(4,4,5,5,5-pentafluoropentyl)dodecanoic Acid] | 64 | –
23 | C[C@]12CC[C@@H]3c4ccc(O)cc4C[C@@H](CCCCCCCC[C@H](CCCC(F)(F)C(F)(F)C(F)(F)C(F)(F)F)C(=O)O)[C@H]3[C@@H]1CC[C@@H]2O [Example 37, (2R)-10-(3,17β-dihydroxyestra-1,3,5(10)-trien-7α-yl)-2-(4,4,5,5,6,6,7,7,7-nonafluoroheptyl)decanoic Acid] | 101 | –
24 | C[C@]12CC[C@@H]3c4ccc(O)cc4C[C@@H](CCCCCCCC[C@@H](CCCC(F)(F)C(F)(F)C(F)(F)C(F)(F)F)C(=O)O)[C@H]3[C@@H]1CC[C@@H]2O [Example 38, (2S)-10-(3,17β-dihydroxyestra-1,3,5(10)-trien-7α-yl)-2-(4,4,5,5,6,6,7,7,7-nonafluoroheptyl)decanoic Acid] | 100 | –
25 | C[C@]12CC[C@@H]3c4ccc(O)cc4C[C@@H](CCCCCCCCC[S+]([O-])CCCC(F)(F)C(F)(F)F)[C@H]3[C@@H]1CC[C@@H]2O (some centres unmarked) [ICI182780, reference compound] | 51 | –
26 | C[C@]1(c2ccc(O)cc2)CCc2cc(O)ccc2[C@H]1CCCCCCCCC[S+]([O-])CCCC(F)(F)C(F)(F)F (some centres unmarked) [ZM189154, reference compound] | – | Inhibition (%): 42%
